# Reference: patent publication US10383875B2, “Pharmaceutical formulations of xanthine or xanthine derivatives, and their use” (Imprimis Pharmaceuticals, Inc., priority 2013, dated 2019)
# Legend:
# [1] = system: Peyronie's Disease plaques; details: oral administration; cited from earlier work
# erectile dysfunction = assay: Intracavernosal injection in a patient with erectile dysfunction (Example 4); type: in vivo, human; details: person, along with phentolamine, alprostadil and papaverine
# Protocol: A new injection was reformulated to contain the 3 vasoactive drugs mentioned above along with the addition of pentoxifylline, and was administered to the patient.
# [2] = system: symptoms of PD, such as erectile dysfunction; assay: Intracavernosal injection of a composition comprising pentoxifylline (general finding); type: in vivo
# Excerpt: This disclosure relates to the finding that local administration of a xanthine derivative, e.g., pentoxifylline, has produced unexpected improvement in treating a fibrotic disease.
# Peyronie's plaque = assay: Injection of pentoxifylline directly into the Peyronie's plaque of patients (Examples 5 and 6); type: in vivo, human; details: Peyronie's disease
# Protocol: In Examples 5 and 6, patients suffering from Peyronie's disease were treated. A therapy cycle included injections of sterile pentoxifylline. More specifically, 6 separate injections were to be conducted over every two weeks. The dosage was 5 mg of pentoxifylline in a 1 ml volume. Single use vials were dispensed. The injections were made using a 21 gauge cannula directly into the Peyronie's plaque. A nerve block was done around the injection site to lessen the pain. Manual manipulation and traction techniques were employed to massage the area of the injection. Patients returned after two weeks for another injection and manual manipulation session.
# Baseline measurements were collected before any treatment occurred to characterize the extent of the patient's disease. The degree of curvature was noted, as well as any pain/discomfort that the patient presently had and current sexual ability. Psychosocial effects related to the patient's disease were observed as well.
# In Example 5, the patient suffering from Peyronie's disease was brought to the procedure room, prepared and draped in the usual sterile fashion.
# A total of 1 mL of 1% lidocaine was used to perform a local block. Once the patient was anesthetized, the plaque was isolated between two fingers and 1 mL of 5 mg pentoxyfilline was injected into the plaque in a fan-like fashion. […]
smiles,measurement,setting,value
"CC(=O)CCCCn1c(=O)c2c(ncn2C)n(C)c1=O [pentoxifylline, 1-(5-oxohexyl)-3,7-dimethylxanthine]",improvement of Peyronie's disease,[1],moderate to minimal improvement
same,improvement of erectile dysfunction,erectile dysfunction; pentoxifylline 6 mg dose,more remarkable
same,improvement of erectile dysfunction,erectile dysfunction; pentoxifylline dose of 4 mg per injection,remarkable improvement
same,"improvement to symptoms of PD, such as erectile dysfunction",[2],remarkable improvement
same,side effects,[2],fewer side effects
same,tolerability of the procedure,"Peyronie's plaque; Example 5 patient, 1 mL of 5 mg injected into the plaque after 1% lidocaine local block",tolerated the procedure well
same,tolerability of the procedure,"Peyronie's plaque; Example 6 patient, treated in the same fashion as Example 5 (5 mg in 1 ml into the plaque)",tolerated the procedure well
